This experiment deals with chymotrypsin (Bos taurus, UniProt P00766). Briefly: Determination of enzyme inhibitory activity against chymotrypsin (substrate AAPFpNA, OD 405 nm). The experiment is classed as biochemical. Conditions: for IC50: chymotrypsin 30 nM, AAPFpNA 0.5 mM, pH 7.8, 37° C.; for remaining activity at 0.0001 µM: peptide 0.0001 μM; for remaining activity at 0.001 µM: peptide 0.001 μM; for remaining activity at 0.01 µM: peptide 0.01 μM; for remaining activity at 0.15 µM: peptide 0.15 μM; for remaining activity at 0.3 µM: peptide 0.3 μM; for remaining activity at 1 µM: peptide 1 μM; for remaining activity at 10 µM: peptide 10 μM; for remaining activity at 100 µM: peptide 100 μM; for remaining activity at 0.1 µM: peptide 0.1 μM; for remaining activity at 0.2 µM: peptide 0.2 μM; for remaining activity at 0.4 µM: peptide 0.4 μM; for remaining activity at 5 µM: peptide 5 μM; for remaining activity at 1000 µM: peptide 1000 μM. The protocol: The substrates N-succinyl-Ala-Ala-Pro-Phe-p-nitroaniline (AAPFpNA) is used in competitive binding reaction to determine the inhibitory activities against α -chymotrypsin. Experiments for a-chymotrypsin was measured in 20 mM CaCl2, 50 mM Tris-HCl buffer (pH 7.8). The concentration of the peptide was measured using optical density (OD) at 280 nm. The Michaelis constant (Km) of the enzyme hydrolysis substrate is calculated from the initial rate of substrate hydrolysis at 405 nm. The absorbance value of the substrate was measured at 405 nm after complete hydrolysis. All data were processed using nonlinear regression.
(1) Added a total 190 μL of reaction buffer (20 mM CaCl2, 50 mM Tris-HCl (pH 7.8)), different concentrations of anti-chymorypsin peptides (CHs) into the pre-cold 96 well plate, followed by preheating at 37° C. for 5 min and centrifugated at 500 rpm for 1 min and allowed to stand for 4 minutes. Then added 8 μL of 750 nM chymotrypsin and incubated at 37° C. for 10 min, and centrifugated at 500 rpm for 1 min and allowed to stand for 9 minutes. Finally, added 2 μL of 50 mM AAPFpNA, and mixed by centrifugation at 500 rpm for 1 min. The plate was incubated at 37° C. for 90 min, and the absorbance value at 405 nm was measured. Three repetitions were made, and only reaction buffer and substrate were added in the blank control as the minimum absorption value (Min OD 405 nm); Only reaction buffer, enzyme and substrate were added in the negative control as the maximum absorption value (Max OD 405 nm).
(2) In the 200 μL of reaction system, the final concentrations of chymotrypsin and AAPFpNA were 30 nM and 0.5 mM, respectively.
Plotted the residual activity of enzyme with […] to obtain the half inhibitory concentration (IC50) of anti-chymorypsin peptides (CHs). Then, substituted it into the formula […]/(1+S/Km) (S, IC50, and Km were substrate concentration, half inhibitory concentration, and Michaelis constant, respectively) to obtain the inhibition constant Ki of anti-chymorypsin peptides (CHs).

Where [1] appears, read: read-out: Residual activity of chymotrypsin.

Where a SMILES comes first, the peptide text is derived from it. Bridges are numbered along the chain shown (N, C = ends).

For orientation: Ki means the equilibrium dissociation constant of an inhibitor or competing ligand from its target. Usually IC50 stands for the concentration at which inhibition is half-maximal. With `CC[C@H](C)[C@@H]1NC(=O)[C@@H]2CCCN2C(=O)[C@@H]2CCCN2C(=O)[C@H]([C@@H](C)CC)NC(=O)[C@H](CO)NC(=O)[C@H](Cc2ccc(O)cc2)NC(=O)[C@H]([C@@H](C)O)NC(=O)[C@@H](NC(=O)[C@@H](N)[C@@H](C)O)CSSC[C@@H](C(=O)N[C@@H](CC(N)=O)C(=O)O)NC1=O` [CH63] (H-TCTYSIPPICN-OH; disulfide 2-10; C-terminus assumed), the Ki was 1320 nM and the midpoint of inhibition, the IC50, lay at 3050 nM.

`CC[C@H](C)[C@@H]1NC(=O)[C@H](CO)NC(=O)[C@H](Cc2ccccc2)NC(=O)[C@H]([C@@H](C)O)NC(=O)[C@@H](NC(=O)[C@@H](N)Cc2ccccc2)CSSC[C@@H](C(=O)N[C@@H](Cc2ccc(O)cc2)C(=O)NCC(=O)O)NC(=O)[C@H](CCC(N)=O)NC(=O)[C@@H]2CCCN2C(=O)[C@@H]2CCCN2C1=O` [CH5] (H-FCTFSIPPQCYG-OH; disulfide 2-10; C-terminus assumed) yielded a Ki of 80 nM and an IC50 of 190 nM. In addition, under setting [1], the remaining activity at 0.0001 µM came out at 96.7 ± 9.3%, the remaining activity at 0.001 µM was 113 ± 2.4%, the remaining activity at 0.01 µM is 102 ± 3.7% and the remaining activity at 0.15 µM amounted to 58.3 ± 2.3%. Under setting [1], the remaining activity at 0.3 µM was 41.9 ± 5.7%, the remaining activity at 1 µM was determined as 11.3 ± 1.5%, the remaining activity at 10 µM was 0.3% and the remaining activity at 100 µM is 0.3 ± 0.2%. Also, for the setting “peptide 0.6 μM, read-out: Residual activity of chymotrypsin”, the remaining activity at 0.6 µM was 19 ± 0.8%.

With `CC[C@H](C)[C@@H]1NC(=O)[C@@H]2CCCN2C(=O)[C@@H]2CCCN2C(=O)[C@H]([C@@H](C)CC)NC(=O)[C@H](CO)NC(=O)[C@H](Cc2ccc(O)cc2)NC(=O)[C@H]([C@@H](C)O)NC(=O)[C@@H](NC(=O)[C@@H](N)CCCCN)CSSC[C@@H](C(=O)N[C@@H](Cc2ccccc2)C(=O)O)NC1=O` [CH64] (H-KCTYSIPPICF-OH; disulfide 2-10; C-terminus assumed), the Ki came out at 400 nM and inhibition was half-maximal at 930 nM (IC50).

Compound `CC[C@H](C)[C@@H]1NC(=O)[C@@H]2CCCN2C(=O)[C@@H]2CCCN2C(=O)[C@H]([C@@H](C)CC)NC(=O)[C@H](CO)NC(=O)[C@H](Cc2ccccc2)NC(=O)[C@H]([C@@H](C)O)NC(=O)[C@H](C)NC(=O)[C@H](CCCNC(=N)N)NC(=O)CNC(=O)[C@@H](N)CSSC[C@@H](C(=O)N[C@@H](Cc2ccccc2)C(=O)O)NC1=O` [CH71] (H-CGRATFSIPPICF-OH; disulfide 1-12; C-terminus assumed) displayed a Ki of 180 nM and an IC50 of 410 nM. Also, under setting [1], the remaining activity at 0.001 µM turned out to be 101.4 ± 0.6%, the remaining activity at 0.01 µM is 100.6 ± 1%, the remaining activity at 0.1 µM amounted to 100.3 ± 0.5% and the remaining activity at 0.2 µM was determined as 81.7 ± 3.3%. Moreover, under setting [1], the remaining activity at 0.4 µM is 49.9 ± 6.6%, the remaining activity at 1 µM was determined as 20.7 ± 1.3%, the remaining activity at 10 µM amounted to 0.8 ± 0.2% and the remaining activity at 100 µM was found to be 0.1 ± 0.1%. Further, the remaining activity at 0.8 µM (peptide 0.8 μM, read-out: Residual activity of chymotrypsin) was 23.6 ± 1.5%.

In the case of `CC[C@H](C)[C@@H]1NC(=O)[C@H](CO)NC(=O)[C@H](Cc2ccccc2)NC(=O)[C@H]([C@@H](C)O)NC(=O)[C@@H](NC(=O)[C@@H](N)CO)CSSC[C@@H](C(=O)N[C@@H](Cc2ccc(O)cc2)C(=O)NCC(=O)O)NC(=O)[C@H](CCC(N)=O)NC(=O)[C@@H]2CCCN2C(=O)[C@@H]2CCCN2C1=O` [CH11] (H-SCTFSIPPQCYG-OH; disulfide 2-10; C-terminus assumed), affinity was put at a Ki of 150 nM and the IC50 is 350 nM. In addition, under setting [1], the remaining activity at 0.001 µM came out at 98.5 ± 3.1%, the remaining activity at 0.01 µM was determined as 104 ± 1.8%, the remaining activity at 0.1 µM was found to be 95.3 ± 3% and the remaining activity at 0.15 µM was 82.3 ± 3.3%. Besides, under setting [1], the remaining activity at 1 µM was determined as 17.6 ± 0.8%, the remaining activity at 5 µM stood at 12.5 ± 0.7%, the remaining activity at 10 µM stood at 6.5 ± 0.3% and the remaining activity at 100 µM stood at 1.1 ± 0.2%. Where the note is “peptide 300 μM, read-out: Residual activity of chymotrypsin”, the remaining activity at 300 µM amounted to 0.2 ± 0.6%. Where the note is “relative to CH10”, the “inhibitory activity reduced (fold)” value is reported as roughly 7 times.

In the case of `CC[C@H](C)[C@@H]1NC(=O)[C@@H]2CCCN2C(=O)[C@@H]2CCCN2C(=O)[C@H]([C@@H](C)CC)NC(=O)[C@H](CO)NC(=O)[C@H](Cc2ccc(O)cc2)NC(=O)[C@H]([C@@H](C)O)NC(=O)[C@H](C)NC(=O)[C@H](CCCNC(=N)N)NC(=O)[C@H](CCCCN)NC(=O)[C@@H](N)CSSC[C@@H](C(=O)N[C@@H](Cc2ccccc2)C(=O)O)NC1=O` [CH69] (H-CKRATYSIPPICF-OH; disulfide 1-12; C-terminus assumed), the affinity corresponds to a Ki of 130 nM and the midpoint of inhibition, the IC50, lay at 300 nM. Further, under setting [1], the remaining activity at 0.001 µM turned out to be 101.7 ± 0.3%, the remaining activity at 0.01 µM amounted to 101 ± 0.2%, the remaining activity at 0.1 µM stood at 100 ± 2.5% and the remaining activity at 0.2 µM worked out at 78 ± 4%. In addition, under setting [1], the remaining activity at 0.3 µM worked out at 51.5 ± 5.8%, the remaining activity at 1 µM amounted to 12.1 ± 1.1%, the remaining activity at 10 µM was found to be 1.3 ± 0.6% and the remaining activity at 100 µM came out at 0%. Also, under “peptide 0.5 μM, read-out: Residual activity of chymotrypsin”, the remaining activity at 0.5 µM was 20.1 ± 6.1%.

For the compound `CC[C@H](C)[C@@H]1NC(=O)[C@@H]2CCCN2C(=O)[C@@H]2CCCN2C(=O)[C@H]([C@@H](C)CC)NC(=O)[C@H](CO)NC(=O)[C@H](Cc2ccccc2)NC(=O)[C@H]([C@@H](C)O)NC(=O)[C@@H](NC(=O)[C@@H](NC(=O)CN)[C@@H](C)O)CSSC[C@@H](C(=O)N[C@@H](CC(N)=O)C(=O)N2CCC[C@H]2C(=O)N[C@@H](CC(N)=O)C(=O)O)NC1=O` [CH25] (H-GTCTFSIPPICNPN-OH; disulfide 3-11; C-terminus assumed), under setting [1], the remaining activity at 0.0001 µM stood at 99.7 ± 1%, the remaining activity at 0.001 µM is 100 ± 1.9%, the remaining activity at 0.01 µM is 96.9 ± 1.4% and the remaining activity at 0.2 µM was 63.1 ± 4.1%. Under setting [1], the remaining activity at 0.3 µM was determined as 44.6 ± 4.9%, the remaining activity at 1 µM is 15.4 ± 1.2%, the remaining activity at 10 µM was determined as 1.5 ± 0.3% and the remaining activity at 100 µM came out at 0.2 ± 0.2%. Moreover, the remaining activity at 1000 µM under setting [1] was found to be 0.2 ± 0.1%.

In the case of `CC[C@H](C)[C@@H]1NC(=O)[C@@H]2CCCN2C(=O)[C@@H]2CCCN2C(=O)[C@H]([C@@H](C)CC)NC(=O)[C@H](CO)NC(=O)[C@H](Cc2ccccc2)NC(=O)[C@H]([C@@H](C)O)NC(=O)[C@@H](NC(=O)[C@@H](NC(=O)CN)[C@@H](C)O)CSSC[C@@H](C(=O)N[C@@H](CC(N)=O)C(=O)O)NC1=O` [CH26] (H-GTCTFSIPPICN-OH; disulfide 3-11; C-terminus assumed), affinity was put at a Ki of 230 nM and the IC50 amounted to 540 nM. Moreover, under setting [1], the remaining activity at 0.001 µM was determined as 101 ± 1.6%, the remaining activity at 0.1 µM was determined as 95.1 ± 2.1%, the remaining activity at 0.2 µM was 83.1 ± 1.1% and the remaining activity at 0.4 µM was 63.2 ± 4.5%. Also, under setting [1], the remaining activity at 1 µM was determined as 27.8 ± 2.5%, the remaining activity at 5 µM came to 7 ± 0.5%, the remaining activity at 10 µM was found to be 2.2 ± 0.2% and the remaining activity at 100 µM came to 0.3 ± 0.1%. Further, under setting [1], the remaining activity at 1000 µM amounted to 0.1%.

The compound `CC[C@H](C)[C@@H]1NC(=O)[C@@H]2CCCN2C(=O)[C@@H]2CCCN2C(=O)[C@H]([C@@H](C)CC)NC(=O)[C@H](CO)NC(=O)[C@H](Cc2ccc(O)cc2)NC(=O)[C@H]([C@@H](C)O)NC(=O)[C@@H](NC(=O)[C@H](CCCNC(=N)N)NC(=O)CN)CSSC[C@@H](C(=O)N[C@@H](Cc2ccccc2)C(=O)N2CCC[C@H]2C(=O)O)NC1=O` [CH56] (H-GRCTYSIPPICFP-OH; disulfide 3-11; C-terminus assumed) came in with a Ki of 270 nM and an IC50 of 620 nM. Further, where the note is “relative to CH55”, the “IC50 reduced (fold)” value is 30 times.

These data come from patent publication US20260242438A1 (INSTITUTE OF MATERIA MEDICA, CHINESE ACADEMY OF MEDICAL …, priority 2022, published 2026).
